# Data published in patent US20060257875A1, “Affinity screening using "one-bead-one-compound" libraries” (Carlsberg A/S, priority 2003, published 2006).
# Non-standard residues stand in square brackets, D forms with d. No end group written: not given here. T(Sa) = sialic acid threonine lactam (threonine bearing sialic acid, its amine closed onto the sugar)
# Assays:
# [1] = system: E. coli membrane proteins; test: Solid phase screening of Library 2 with labeled E. coli membrane proteins; bound proteins identified by tryptic digest and peptide mass fingerprinting; format: binding, Escherichia coli DH 5α-136; conditions: Library 2 ligand on bead
# Protocol: A 400 mL culture of Escherichia coli DH 5α-136 (Carlsberg Research Center Collection) was prepared according to the procedures described in Hanahan, 1985, In: DNA Cloning, Vol 1, Glover, D., ed., IRL Press Ltd, pp. 109-135. […]. The media containing extracellular protein was retained and the pellet washed once with PBS, pH 7.6 (cellular weight=2.22g).
# Isolation of E. coli membrane proteins was achieved through modification of published literature procedures: Auer, et al., 2001, Biochemistry, 40:6628-6635, and Molloy, et al., 2000, Eur. J. Biochem. 267:2871-2881. After incubation of E. coli cells for 2 days, washed cells were scraped from plates and centrifuged as described above for Example 10. The cell pellet (approximately 1 g) was suspended in 50 mM Tris HCl, pH 7.5 and pressed (2×) in a French Press at 1500 Psi. The resulting suspension was centrifuged at 2500×g for 10 minutes. The ice cold supernatant was diluted with 2.5 ml of ice-cold 0.1 M sodium carbonate buffer 11 and the solution stirred on ice for 1 hour. Ultracentrifugation was then carried out at 115, 000×g for 1 to 1.5 hours at 4° C., yielding Pellet 1 and Supernatant 1. The membrane pellet 1 was resuspended in 50 mM Tris HCl, pH 7.5 and the pellet was recollected after centrifugation for an additional 20 minutes at 115,000×g, yielding Pellet 2 and supernatant 2. Pellet 2 was solubilized in 50 mM Tris HCl, pH 7.5 containing 10 MM imidazole, 0.5 mM PMSF, 20% glycerol, and 1% Dodecyl Maltoside (DM) or 33 mM Octyl Glucoside (OG) for 30 mninutes at 4° C. The suspension was then centrifuged for 10,000 g for 30 minutes. The pellet and supernatant obtained were labeled Pellet 3 and supernatant 3.
# The protein was labeled with amino reactive succinylanthranilate dye (blue) DDM (0.49 mg dye) and OG (0.03 mg dye) according to the same protocol used in the extracellular labeling described above for Example 12. The labeling stopping reaction (hydroxylamine hydrochloride addition) was not used in this case, to avoid dilution of the protein. The mixture was dialyzed overnight against 10 mM PBS buffer, pH 6.8 containing 0.01 MM ZnCl2, 0.01 mM CaCl2, 0.01 mM MnCl2, and 0.01 mM MnSO4, against a three time buffer change.
# The ligand library was then washed, and E. coli labeled membrane protein, prepared as described above for Example 13, was added (0.1 ml). The ligand library and protein mixture was incubated overnight at room temperature.
# (§1) Ligands can be completely or partially identified by MALDI_TOF-MS whether or not the library is synthesized by ladder synthesis. […] The ligand is cleaved from the resin bead depending on the type of linker used. […] Peptide fragments (ladder synthesis) or single compounds were extracted from the bead with 0.5 AL CH3CN, then 0.5 FL 70% CH3CN/H2O. […] In the case of the acid labile Rink linker (Library 7), the compound was released from the bead by treatment with 95% TFA or 30 min. The TFA solution was evaporated and the cleaved compounds were extracted in 2 μL 70% acetonitrile+0.1% TFA. This mixture was then transferred to a stainless steel disc to which 0.4 μL of CHC matrix+1.0% TFA was added. An additional 0.4 μL of CHC matrix+1.0% TFA was added to complete sample application.
# A typical analysis employed 100-300 laser shots. […] A typical analysis employed 200-300 laser shots. The possible identity of the ligand was determined (Narrowed down) by comparing the recorded mass of the ligand with the masses of all possible compounds formed in the library. […]
# [2] = system: Serum induced Myocytes proteins; test: Solid phase screening of Library 5 with labeled myocyte protein; format: binding, neonatal Wistar rats
# [3] = system: normal porcine macrophage proteins; test: Solid phase screening of small molecule Library 7 with labeled viral and porcine macrophage proteins; format: binding; conditions: Normal Macrophages
# Text: (§2) Alternatively, the fluorescent ligand library beads containing bound protein obtained as described in Examples 47, 48, 49 and 51 were sorted using a COPAS (250) NF Bead Sorter (Union Biometrica, Somerville, Mass.) equipped with a dual detector. Both the cyanine dyes used in the labeling procedure, namely Cy 2 (emission wavelength—510 nm) and Cy 3 (emission wavelength—570 nm) were simultaneously excited at […] The bead selection window was then set-up such that all beads containing significant green fluorescence and no red flourescence were isolated. The unselected beads were then resorted to obtain beads containing red fluorescence (proteins from basal cells). The selected red and green fluorescent beads were then sorted into brightly and less brightly fluorescent beads, to give an indication of either the strength of binding of the ligand to a particular protein or the amount of protein present in the sample binding to the ligand.
# as §1
# (§3) A typical analysis employed 100-300 laser shots. […] A typical analysis employed 200-300 laser shots. The possible identity of the ligand was determined (Narrowed down) by comparing the recorded mass of the ligand with the masses of all possible compounds formed in the library. This comparison was carried out using an in-house created computer program The precise identity of the ligand can then be confirmed using MS fragmentation as described in Example 41.
# (§4) Isolated proteins that bound to specific ligands were identified using peptide mass fingerprinting. Mass spectra were recorded on a Bruker Reflex m MALDI time-of-flight mass spectrometer (Bruker-Daltonics, Bremen, Germany) operated in the positive reflectron mode using delayed extraction. Measurements were performed using the following parameters: Power 83-84 V; lens 7.300. The sum of 200-300 shots was used for each spectrum.
# (§5) The spectra were calibrated using bradykinin peptide. In some cases, internal mass calibration was performed using a porcine trypsin autolysis product Peptide masses were searched against peptide mass maps in the National Center for Biotechnology Information (NCBI) database using the following search engines found on the world wide web (www.) for each of: • MS-FIT (prospector.ucsf.edu/ucsfhtml/msfit.htm), • Profound (129.85.19.192/profound_biniWebProFound.exe), and • MASCOT (matrixscience.com).
# (§6) A search was performed using the NCBI bacterial (E. coli) database and the mammalian databases for the isolated proteins from the E. coli and myocyte samples, respectively, and the Swiss Prot mammalian databases and the Swiss Prot viral databases were searched to identify the porcine macrophage proteins and proteins, respectively. A molecular mass range was estimated from 0-250 K Da, allowing a mass accuracy that varied from 0.1 Da (some cases 0.3 Da) for each peptide mass. A large pI range from 0-14 or 0-12 was considered for each search. If no proteins matched, the mass window was extended. Partial enzyme cleavages allowing for two missed cleavage sites and modification of cysteine by alkylation were considered in the search approaches. A protein was considered identified if the matched peptides covered at least 30% of the complete sequence. […]
# [4] = system: porcine reproductive and respiratory virus infected macrophage proteins; test: as above; format: binding; conditions: Virus-infected Macrophages, (V) indicates virus proteins
# Text: as §2, §1, §3, §4, §5, §6
# [5] = system: normal/healthy myocyte proteins; test: Solid phase screening of small molecule biaryl Library 7 with labeled myocyte proteins; format: binding, neonatal Wistar rats; conditions: Normal Myocytes
# Protocol: Myocytes were prepared from 1 to 5 day old neonatal Wistar rats (University of Copenhagen) according to literature procedure described in Busk et al., 2002, Cardiovasc. Res., 56: 64-75 and plated into eight P10 culture plates at 6 million cells/plate.
# In another case, fluorescent dye Cyanine 3 (Cy 3) (Molecular Probes) was used to label the healthy/basal cells while Cyanine 2 (Cy 2) (Molecular Probes) was used to label the PE-treated cells. The labeling procedures were carried out according to the manufacturer's protocol. The protein solutions (0.35 mL, 100 μg for PE cells and 0.41 mL, 100 μg for basal cells) were dialyzed against a solution of 10 mM phosphate buffer, 0.15 M NaCl, pH 7.5 and then 1 M NaHCO3 (0.03-0.04 mL) was added to obtain a final pH between 8.0-9.0. For efficient labeling, […] fluor (5 μL solution was prepared by addition of […] of reconstituted fluorophore solution [1 nmol μL] and 3 μL of dry DMF) was used to label 50 μg of protein. The fluorophore and the protein solution are mixed thoroughly by vortexing. The samples are then centrifuged briefly in a microfuge and left on ice for 30 min in the dark. To stop the reaction, 10 mM lysine (1 μL) was added to the samples and the samples were mixed by vortexing and centrifuged briefly in a microfuge. The samples were left on ice for 10 min in the dark. The labeled protein solutions were dialyzed extensively against 10 mM phosphate buffer, 0.15 M NaCl, pH 7.5, to remove excess dye. Labeled samples were stored for at −70° C. in the dark until further use.
# as §2, §1
# A typical analysis employed 100-300 laser shots. […] The possible identity of the ligand was determined (Narrowed down) by comparing the recorded mass of the ligand with the masses of all possible compounds formed in the library. […]
molecule,measurement,setting,value
T(Sa)-H-W-H-L ([T(Sa)]HWHL),Identified Protein(s),[1],(NaDPH) (gi 2121143).
T(Sa)-H-W-V-V,Identified Protein(s),[1],(M).
CC(C)N1CCCC(CN[C@H]2CCCCN(CC(=O)O)C2=O)N2C(=O)c3ccccc3[C@H]12 (stereo partly shown) [HY9],Identified Protein(s),[2],Zinc finger protein 339 (Q9BRPO); DNA repair protein RAD52 homolog (P43351).
O=C(O)[C@@H]1CCCN1C(=O)c1ccc(-c2ccco2)o1,Identified Protein(s),[3],Salt inducible kinase 2 (27529963); PVHL-ubiqquitin interacting enzyme 2 (23208620); Similar to glyceral- dehyde-3-phosphate dehydrogenase (gi27686413)
COc1ccc(OC)c(-c2ccc(C(=O)N[C@@H](Cc3ccc(OC)c(OC)c3)C(=O)O)o2)c1,Identified Protein(s),[4],Carbohydrate (chondroitin synthase 2) (28466981); Glucosidase II alpha-subunit (gi5452936); Similar to chromosome 9 reading frame 24 (gi29437020) (V) Envelope glycoprotein C2V3 region (gi3925092); Envelope glycoprotein (gi15705767)
COc1ccc(-c2ccc(C(=O)NCC(=O)O)o2)cc1,Identified Protein(s),[3],Salt inducible kinase 2 (27529963); PVHL-ubiqquitin interacting enzyme 2 (23208620); Similar to glyceral- dehyde-3-phosphate dehydrogenase (gi27686413)
COc1ccc(Br)c(OC)c1C(=O)N[C@@H](Cc1c[nH]c2ccccc12)C(=O)O,Identified Protein(s),[5],"Cutochrome P450 2C31 (CYPIIC31) (CPCV_CAPAE,Q29478); Fatty acid-binding protein, (FABPI, P0293); Similar to the alpha subunit of protein kinase CK2 (gi 28527943)."
COc1ccc(Br)c(OC)c1C(=O)N1CCC(C(=O)O)(c2ccccc2)CC1 [drawing 202],Identified Protein(s),[5],"Centaurin gamma (3) (Q96P47); Poly [ADP-ribose] poly- merase-1 (PARP-1) (ADPRT) (NAD(+) ADP- ribosyltransferase-1) (Poly[ADP-ribose] synthease-1) (P09874); Aortic preferentially expressed protein 1 (APEG-1) Aortic preferentially expressed protein 1 (APG1_RAT, Q63638)."
CC(=O)N(C[C@@H]1CN(C(C)C)[C@H]2c3ccccc3C(=O)N12)[C@H]1CCCCN(CC(=O)O)C1=O [HY7],Identified Protein(s),[2],Zinc finger protein 339 (Q9BRPO); DNA repair protein RAD52 homolog (P43351).
O=C(NC1(C(=O)O)CCc2ccccc2C1)c1cccc(Br)n1 (stereo not shown),Identified Protein(s),[5],"Gap junction beta-5 protein (Connexin 31.1), (Q02739); Hypothetical protein XP1'288677 )gi 208598980)."
COc1ccc(-c2ccc(C(=O)O)cc2)c(OC)c1C(=O)N[C@@H](Cc1c[nH]cn1)C(=O)O,Identified Protein(s),[4],Carbohydrate (chondroitin synthase 2) (28466981); Glucosidase II alpha-subunit (gi5452936); Similar to chromosome 9 reading frame 24 (gi29437020) (V) Envelope glycoprotein C2V3 region (gi3925092); Envelope glycoprotein (gi15705767)
T(Sa)-F-G-L-M,Identified Protein(s),[1],(M).
COc1ccccc1-c1ccc(C(=O)NCC(=O)O)o1,Identified Protein(s),[3],Salt inducible kinase 2 (27529963); PVHL-ubiqquitin interacting enzyme 2 (23208620); Similar to glyceral- dehyde-3-phosphate dehydrogenase (gi27686413)
T(Sa)-F-V-W-H,Identified Protein(s),[1],(P).
COc1ccc(Br)c(OC)c1C(=O)N1CCC(C(=O)O)(c2ccccc2)CC1 [drawing 209],Identified Protein(s),[5],"Cutochrome P450 2C31 (CYPIIC31) (CPCV_CAPAE,Q29478); Fatty acid-binding protein, (FABPI, P0293); Similar to the alpha subunit of protein kinase CK2 (gi 28527943)."
O=C(O)CC(NC(=O)c1ccc(-c2ccco2)o1)c1ccc(-c2ccccc2)cc1 (stereo not shown),Identified Protein(s),[5],"Thyroid receptor interacting protein 11 (TRIP- 11,Q15643); Unnamed protein product (gi 26338976)."
COc1ccc(OC)c(-c2ccc(OC)c(C(=O)N[C@@H](Cc3c[nH]cn3)C(=O)O)c2OC)c1,Identified Protein(s),[4],Carbohydrate (chondroitin synthase 2) (28466981); Glucosidase II alpha-subunit (gi5452936); Similar to chromosome 9 reading frame 24 (gi29437020) (V) Envelope glycoprotein C2V3 region (gi3925092); Envelope glycoprotein (gi15705767)
COc1ccc(C[C@H](NC(=O)c2ccc(-c3ccc(C(=O)O)cc3)o2)C(=O)O)cc1OC,Identified Protein(s),[4],Carbohydrate (chondroitin synthase 2) (28466981); Glucosidase II alpha-subunit (gi5452936); Similar to chromosome 9 reading frame 24 (gi29437020) (V) Envelope glycoprotein C2V3 region (gi3925092); Envelope glycoprotein (gi15705767)
T(Sa)-H-I-G-Y,Identified Protein(s),[1],"16129807/15831818) (LA, M)"
CC(O)[C@H](NC(=O)c1cc(-c2ccco2)cs1)C(=O)O (stereo partly shown),Identified Protein(s),[4],Unnamed protein product (26336134); Seri- ne/threonine kinase 9/cylin dependent Serine/threonine kinase 9(23271297/4507281); Caveolin 1(gi 4972627/AAD347221) (V) Envelope glycoprotein (gi 3832399)
Cc1ccc(-c2csc(C(=O)NCC(=O)O)c2)cc1,Identified Protein(s),[3],Salt inducible kinase 2 (27529963); PVHL-ubiqquitin interacting enzyme 2 (23208620); Similar to glyceral- dehyde-3-phosphate dehydrogenase (gi27686413)
NC[C@H](NC(=O)c1cccc(-c2ccco2)n1)C(=O)O,Identified Protein(s),[3],Salt inducible kinase 2 (27529963); PVHL-ubiqquitin interacting enzyme 2 (23208620); Similar to glyceral- dehyde-3-phosphate dehydrogenase (gi27686413)
